In brackets after ≈: the same amount, converted by molar mass. Read-outs that look alike come from different tables or passages of the source. Values belong to the compound of their own block, whether it stands above or below them.
Legend:
Assay type in all cases: physicochemical
[1] = Stability test (sealed vial 18 h), form by XRPD; conditions: resulting form
[2] = TGA / TGA-EGA thermogravimetric analysis with evolved gas analysis; conditions: for EGA: evolved solvent identified; for TGA overall weight loss: overall loss of the named solvent(s)
Protocol: The analysis was carried out using the Mettler Toledo TGA/DSC1. The sample was weighed in an aluminum pan hermetically sealed with an aluminum pierced cover. The analysis was performed heating the sample from 25° C. to 320° C. at 10° C./min. TGA-FTIR coupled with Thermo Nicoled is 10 spectometer. The analysis was carried out using the mettler toledo TGA/DSC1. The sample was weighed in an aluminum pan hermetically sealed with an aluminum pierced cover. The analysis was performed heating the sample from 25° C. to 320° C. at 10° C./min. The evolved gas is compared with ft-ir spectra database for identification.

[3] = Stability test (exposed sample 16 h), form by XRPD; conditions: resulting form
[4] = DSC - differential scanning calorimetry; conditions: for DSC (onset) endo. solvent loss: endothermic event: solvent loss; for DSC (onset) endo. degradation: endothermic event: degradation; for DSC (onset) endo. melting: endothermic event: melting
Protocol: The analysis was carried out using a DSC Q200 TA instruments equipped with a refrigerator cooling system (RCS40) and autosampler. The sample was weighed in an aluminum hermetic pan with pinhole. The analysis was performed heating the sample from 25° C. to 350° C. at 10° C./min.

[5] = Visual solubility in differing solvents (European Pharmacopeia 6.0 section 5.11); conditions: for solubility at 15 min: 25 °C, organic solvent or mixture, thermodynamic from solid; for visual solubility in water: water at 75° C.
Protocol: Visual solubility of certain forms (compounds) in differing solvents was assessed according to the procedure described in the European Pharmacopeia 6.0 section 5.11. p. The compound was shaken vigorously for 1 min and placed in a constant temperature device for 15 min at 25.0±0.5° C. If the compound was not completely dissolved, the shaking was repeated for 1 min and the tube placed in a constant temperature device for 15 min. 50 mg of compound was weighed in a stoppered tube, 0.05 mL of the solvent added and the Dissolving Procedure (see above) followed. If the compound was completely dissolved, it is very soluble. If the compound was not completely dissolved, a further 0.45 mL of the solvent was added and the Dissolving Procedure (see above) followed. […] If the compound was still not completely dissolved, still further 1.0 mL of the solvent was added and the Dissolving Procedure (see above) followed. If the compound was completely dissolved, it is soluble. If the compound was still not completely dissolved, another 3.5 mL of the solvent was added and the Dissolving Procedure (see above) followed. […] If the compound was still not completely dissolved, the compound is slightly soluble or very slightly soluble. In this case, and the suspension was heated up to the boiling point (max 80° C.) under stirring to verify the solubility at high temperature. The hot solution was afterwards cooled to room temperature to observe whether the compound precipitates. If the compound at room temperature was completely dissolved, it is soluble at high temperature. [table]

[6] = Dynamic vapor sorption (DVS) analysis / hygroscopicity (EP 7.0 classification); conditions: for hygroscopicity classification according to the European Pharmacopoeia (EP, version 7.0) / mass increase by dynamic vapor sorption analysis (hygroscopicity): 80% RH and 25° C.; for mass increase by dynamic vapor sorption analysis (hygroscopicity): first sorption cycle, relative to 40% RH; for stability / XRPD pattern after DVS analysis: compared with untreated sample; for Change In Mass (%) Desorption / Change In Mass (%) Hysteresis / Change In Mass (%) Sorption: DVS, 25° C.
Protocol: The hygroscopicity value is directly obtained from the sorption row at 80% RH, cycle 1.
Hygroscopicity of a sample of each of new form II and comparative form I was determined using the protocol provided below in conditions of 80% RH and 25° C.
The sample was subjected to DVS measuring using SMS-DVS intrinsic. The kinetic moisture sorption measurement was performed at 25° C. and in a RH % range described in the following: • From 40% RH to 90% RH • Form 90% RH to 0% RH • From 0% RH to 90% RH • From 90% RH to 0% RH
The sample was analyzed by XRPD after the analysis.
The hygroscopicity was calculated using the following equation: % Weight Change=[(W2−W1)/W1]*100 W1: weight of sample at the start of the experiment (25° C. and 40% RH) W2: weight of sample at 25° C. and 80% RH in the first absorption cycle

[7] = Storage stability of exposed powder at 25° C. and 60% RH for seven days, compared by XRPD; conditions: 60% RH and 25° C. for 7 days, exposed powder
Protocol: Approximately 30 mg of exposed powder of comparative form 1 and new forms II and III, respectively, were stored at 25′C and 60% RH for seven days. Each powder was then analyzed by XRPD and its diffraction pattern was compared with that of untreated sample.

[8] = Micronization in fluid energy jet mill: particle size distribution and XRPD of product; conditions: for XRPD of micronized product versus starting material: after fluid energy jet milling
Description: Vilanterol trifenatate form II is fed to a fluid energy jet mill at 10-100 g/h, operated with N2 at a pressure of 1 to 8 bar for the venturi and a pressure of 1 to 8 bar for the ring.

Compound: OCc1cc([C@@H](O)CNCCCCCCOCCOCc2c(Cl)cccc2Cl)ccc1O [form XIV, vilanterol trifenatate]
Stability test (sealed vial 18 h) ([1]; listed as Form 14): Form 3 (almost
EGA ([2]; listed as Form 14): Methylcyclohexane
TGA overall weight loss ([2]; listed as Form 14): loss of 26% w/w
Stability test (exposed sample 16 h) ([3]; listed as Form 14): Form 3
DSC (onset) endo. solvent loss + melting ([4]; endothermic event: solvent loss + melting (Form 6: + Form 2 melting; Form 14: + Form 3 melting), listed as Form 14): endo. 80 °C solvent
DSC (onset) endo. solvent loss ([4]; listed as Form 14): endo. 58 °C solvent loss

Compound: OCc1cc([C@@H](O)CNCCCCCCOCCOCc2c(Cl)cccc2Cl)ccc1O [form I, 4-((1R)-2-((6-(2-((2,6-Dichlorophenyl)methoxy)ethoxy)hexyl)amino)-1-hydroxyethyl)-2-(hydroxymethyl)phenol triphenylacetate, reference compound]
visual solubility in 1,4-dioxane ([5]; 1,4-dioxane at 25° C.): freely soluble (a further 0.45 mL of the solvent was added and the Dissolving Procedure (see above) followed. If the compound was completely dissolved, it is freely soluble.)
solubility at 15 min ([5]; ethanol, ethanol at 25° C., read-out: visual solubility in ethanol): 10 to 33 mg/mL (≈ 20.6 to 67.8 mM)
solubility at 15 min ([5]; methanol, methanol at 25° C., read-out: visual solubility in methanol): 33 to 100 mg/mL (≈ 67.8 to 206 mM)
visual solubility in water [5]: insoluble
hygroscopicity classification according to the European Pharmacopoeia (EP, version 7.0) [6]: non-hygroscopic
mass increase by dynamic vapor sorption analysis (hygroscopicity) [6]: 0.19%
stability / XRPD pattern after DVS analysis [6]: showed stability after DVS analysis
modifications in XRPD pattern after storage (structural stability) [7]: No significant modifications in XRPD pattern
XRPD of micronized product versus starting material [8]: identical to that of the starting material
particle size distribution Dv50 after micronization ([8]; fluid energy jet mill, N2): 4.2 μm
particle size distribution Dv90 after micronization ([8]; fluid energy jet mill, N2): 9.6 μm

Compound: OCc1cc([C@@H](O)CNCCCCCCOCCOCc2c(Cl)cccc2Cl)ccc1O [form V, vilanterol trifenatate]
Stability test (sealed vial 18 h) ([1]; listed as Form 5): Strong crystanllinity
EGA ([2]; listed as Form 5): Methylcyclohexane
Stability test (exposed sample 16 h) ([3]; listed as Form 5): Form 2
DSC (onset) endo. Form 1 melting ([4]; endothermic event: Form 1 melting, listed as Form 5): endo. 134 °C Form 1
DSC (onset) endo. degradation ([4]; listed as Form 5): endo. 188 °C degradation
DSC (onset) endo. solvent loss ([4]; listed as Form 5): endo. 55-100 °C solvent loss

Second part, led by results:

visual solubility in water [5]: insoluble
hygroscopicity classification according to the European Pharmacopoeia (EP, version 7.0) [6]: slightly hygroscopic
mass increase by dynamic vapor sorption analysis (hygroscopicity) [6]: 1.1%
Change In Mass (%) Desorption ([6]; Cycle 1, target RH 0.0%): −0.017%
Change In Mass (%) Desorption ([6]; Cycle 1, target RH 10.0%): 0.002%
Change In Mass (%) Desorption ([6]; Cycle 1, target RH 20.0%): 0.015%
Change In Mass (%) Desorption ([6]; Cycle 1, target RH 30.0%): 0.024%
Change In Mass (%) Desorption ([6]; Cycle 1, target RH 40.0%): 0.035%
Change In Mass (%) Hysteresis ([6]; Cycle 1, target RH 40.0%): 0.035%
Change In Mass (%) Sorption ([6]; Cycle 1, target RH 40.0%): 0.000%
Change In Mass (%) Desorption ([6]; Cycle 1, target RH 50.0%): 0.280%
Change In Mass (%) Hysteresis ([6]; Cycle 1, target RH 50.0%): 0.271%
Change In Mass (%) Sorption ([6]; Cycle 1, target RH 50.0%): 0.008%
Change In Mass (%) Desorption ([6]; Cycle 1, target RH 60.0%): 0.421%
Change In Mass (%) Hysteresis ([6]; Cycle 1, target RH 60.0%): 0.399%
Change In Mass (%) Sorption ([6]; Cycle 1, target RH 60.0%): 0.022%
Change In Mass (%) Desorption ([6]; Cycle 1, target RH 70.0%): 0.567%
Change In Mass (%) Hysteresis ([6]; Cycle 1, target RH 70.0%): 0.530%
Change In Mass (%) Sorption ([6]; Cycle 1, target RH 70.0%): 0.037%
Change In Mass (%) Desorption ([6]; Cycle 1, target RH 80.0%): 1.144%
Change In Mass (%) Hysteresis ([6]; Cycle 1, target RH 80.0%): 0.061%
Change In Mass (%) Sorption ([6]; Cycle 1, target RH 80.0%): 1.083%
Change In Mass (%) Desorption ([6]; Cycle 1, target RH 90.0%): 1.857%
Change In Mass (%) Sorption ([6]; Cycle 1, target RH 90.0%): 1.857%
Change In Mass (%) Sorption ([6]; Cycle 2, target RH 0.0%): −0.017%
Change In Mass (%) Sorption ([6]; Cycle 2, target RH 10.0%): −0.003%
Change In Mass (%) Sorption ([6]; Cycle 2, target RH 20.0%): 0.008%
Change In Mass (%) Sorption ([6]; Cycle 2, target RH 30.0%): 0.016%
Change In Mass (%) Sorption ([6]; Cycle 2, target RH 40.0%): 0.025%
Change In Mass (%) Sorption ([6]; Cycle 2, target RH 50.0%): 0.033%
Change In Mass (%) Sorption ([6]; Cycle 2, target RH 60.0%): 0.041%
Change In Mass (%) Sorption ([6]; Cycle 2, target RH 70.0%): 0.056%
Change In Mass (%) Sorption ([6]; Cycle 2, target RH 80.0%): 1.111%
Change In Mass (%) Sorption ([6]; Cycle 2, target RH 90.0%): 1.952%
stability / XRPD pattern after DVS analysis [6]: no significant modifications
particle size distribution Dv90 after micronization ([8]; fluid energy jet mill, N2): below 10 μm
Compound: OCc1cc([C@@H](O)CNCCCCCCOCCOCc2c(Cl)cccc2Cl)ccc1O [form III, vilanterol trifenatate]
visual solubility in tetrahydrofuran (THF) ([5]; THF at 25° C.): sparingly soluble (another 3.5 mL of the solvent was added and the Dissolving Procedure (see above) followed. If the compound was completely dissolved, it is sparingly soluble.)
modifications in XRPD pattern after storage (structural stability) [7]: No significant modifications in XRPD pattern
XRPD of micronized product versus starting material [8]: identical to the one of the starting material

Stability test (sealed vial 18 h) ([1]; listed as Form 4): Form 12
EGA ([2]; listed as Form 4): Cyclohexane
TGA overall weight loss ([2]; listed as Form 4): overall loss of 40% w/w/
Stability test (exposed sample 16 h) ([3]; listed as Form 4): Form 2
DSC (onset) endo. degradation ([4]; listed as Form 4): endo. 189 °C degradation
DSC (onset) endo. melting ([4]; listed as Form 4): endo. 76 °C melting
Compound: OCc1cc([C@@H](O)CNCCCCCCOCCOCc2c(Cl)cccc2Cl)ccc1O [form IV, vilanterol trifenatate]

Stability test (sealed vial 18 h) ([1]; listed as Form 13): Form 12 (almost
TGA overall weight loss ([2]; listed as Form 13): One loss of 34% w/w
Stability test (exposed sample 16 h) ([3]; listed as Form 13): Form 12
DSC (onset) endo. degradation ([4]; listed as Form 13): endo. 189 °C
DSC (onset) endo. melting ([4]; listed as Form 13): endo. 105 °C
DSC (onset) exo. recrystallization ([4]; exothermic event: recrystallization): exo. 93 °C
Compound: OCc1cc([C@@H](O)CNCCCCCCOCCOCc2c(Cl)cccc2Cl)ccc1O [form XIII, vilanterol trifenatate]

Source: US11414374B2, “Crystalline forms of vilanterol trifenatate and processes for their preparation” (Hovione Scientia Limited, priority 2017, dated 2022)
